# Active and inactive are the calls of the source. No rule for the calls is given here.
# Tested on: GENE-TOX genotoxicity assays, various organisms and cells
# Assay: GENE-TOX mutagenicity studies
# Conditions: for call: Assay Type: In vivo carcinogenicity studies
# [1] = Species/Cell Type: Drosophila melanogaster, Assay Type: Sex-linked recessive lethal gene mutation, Assay Code: SRLT, Evaluation Type: Evaluation A (Pre-1980)
# [2] = Species/Cell Type: Neurospora crassa, Assay Type: Aneuploidy, chromosome aberrations, Assay Code: NEN-, Evaluation Type: Evaluation A (Pre-1980)
# [3] = Species/Cell Type: Nonhuman, Assay Type: Sister-chromatid exchange (SCE) in vitro, Assay Code: SC2+D, Dose Response: With dose response, Evaluation Type: Evaluation B (Post-1980)
# [4] = Species/Cell Type: Mammalian polychromatic erythrocytes, Assay Type: Micronucleus test, chromosome aberrations, Assay Code: MNTT, Evaluation Type: Evaluation B (Post-1980)
# [5] = Species/Cell Type: Nonhuman, Assay Code: CCGT, Evaluation Type: Evaluation A (Pre-1980)
# [6] = Species/Cell Type: Salmonella typhimurium (one or more of the five standard strains: TA98, TA100, TA1535, TA1537, and TA1538), Assay Type: Histidine reverse gene mutation, Ames assay, Assay Code: SALT, Evaluation Type: Evaluation A (Pre-1980)
# [7] = Species/Cell Type: Saccharomyces cerevisiae, Assay Type: Mitotic recombination or gene conversion, Assay Code: YEH-, Evaluation Type: Evaluation A (Pre-1980)
# [8] = Species/Cell Type: Salmonella typhimurium (one or more of the five standard strains: TA98, TA100, TA1535, TA1537, and TA1538), Assay Type: Histidine reverse gene mutation, Ames assay, Assay Code: SAL-, Evaluation Type: Evaluation A (Pre-1980)
# [9] = Species/Cell Type: Nonhuman, Assay Code: CCG+L, Evaluation Type: Evaluation A (Pre-1980)
compound,measurement,setting,value
CCNc1nc(Cl)nc(NC(C)(C)C#N)n1,mutagenic call,"Species/Cell Type: Drosophila melanogaster, Assay Type: Aneuploidy, partial sex chromosome loss, chromosome aberrations, Assay Code: DAPT, Evaluation Type: Evaluation A (Pre-1980)",no conclusion
same,mutagenic call,"Species/Cell Type: Drosophila melanogaster, Assay Type: Aneuploidy, sex chromosome gain, chromosome aberrations, Assay Code: DAGT, Evaluation Type: Evaluation A (Pre-1980)",no conclusion
same,mutagenic call,"Species/Cell Type: Drosophila melanogaster, Assay Type: Aneuploidy, whole sex chromosome loss, chromosome aberrations, Assay Code: DAC-M, Evaluation Type: Evaluation A (Pre-1980)",inactive; negative
same,mutagenic call,[1],no conclusion
same,mutagenic call,[2],inactive; negative
same,mutagenic call,"Species/Cell Type: Tradescantia species, Assay Type: Chromosome aberrations, Assay Code: TRC+, Evaluation Type: Evaluation A (Pre-1980)",active; positive
same,mutagenic call,"Species/Cell Type: Vicia faba, Assay Type: Chromosome aberrations, Assay Code: VIC+, Evaluation Type: Evaluation A (Pre-1980)",active; positive
same,mutagenic call,"Species/Cell Type: Zea mays (corn), Assay Type: Gene mutation, Assay Code: ZEM+, Evaluation Type: Evaluation A (Pre-1980)",active; positive
COCCOC1=C(N2CC2)C(=O)C(OCCOC)=C(N2CC2)C1=O,mutagenic call,[1],no conclusion
same,mutagenic call,[3],active; positive
CCCCCCCCCCCCCCCCCCN(CCO)CCCN(CCO)CCO,mutagenic call,[4],no conclusion
Cc1ccc2ccc3c(C)c4ccccc4c4ccc1c2c34,mutagenic call,[1],no conclusion
[Cr],call,[5],no conclusion
Nc1c(O)cc(S(=O)(=O)O)c2ccccc12,mutagenic call,[6],no conclusion
CCCCCC(=O)c1c(O)cc2c(c1O)C(=O)c1c(O)cc(O)cc1C2=O,mutagenic call,[6],no conclusion
O=C(OCC1=CCN2CC[C@@H](OC(=O)c3ccc([N+](=O)[O-])cc3)[C@@H]12)c1ccc([N+](=O)[O-])cc1,mutagenic call,"Species/Cell Type: Allium cepa, Assay Type: Chromosome aberrations, Assay Code: ALC+, Evaluation Type: Evaluation A (Pre-1980)",active; positive
CC(=O)OC[C@]12CCC(C)=C[C@H]1O[C@@H]1[C@H](O)[C@@H](OC(C)=O)[C@@]2(C)[C@]12CO2,mutagenic call,[7],inactive; negative
same,mutagenic call,[6],no conclusion
NC(=O)c1ccccc1,mutagenic call,"Species/Cell Type: Human, Assay Type: Sister-chromatid exchange (SCE) in vitro, Assay Code: SC1+, Evaluation Type: Evaluation B (Post-1980)",active; positive
same,mutagenic call,"Species/Cell Type: Mammalian polychromatic erythrocytes, Assay Type: Micronucleus test, chromosome aberrations, Assay Code: MNT+U, Dose Response: Unconfirmed positive response, Evaluation Type: Evaluation B (Post-1980)",active; positive
same,mutagenic call,"Species/Cell Type: Nonhuman, Assay Type: Sister-chromatid exchange (SCE) in vitro, Assay Code: SC2+, Evaluation Type: Evaluation B (Post-1980)",active; positive
CC(=O)O,mutagenic call,"Species/Cell Type: Human lymphocytes, Assay Type: Sister-chromatid exchange (SCE) in vitro, Assay Code: SCL-, Evaluation Type: Evaluation A (Pre-1980)",inactive; negative
same,mutagenic call,"Species/Cell Type: Human, Assay Type: Sister-chromatid exchange (SCE) in vitro, Assay Code: SC1-, Evaluation Type: Evaluation A (Pre-1980)",inactive; negative
same,mutagenic call,[8],inactive; negative
same,mutagenic call,"Species/Cell Type: Syrian hamster embryo (SA7/SHE) cells, Assay Type: Cell transformation, viral enhanced, Assay Code: CT7-, Evaluation Type: Evaluation A (Pre-1980)",inactive; negative
CCC(Br)(CC)C(=O)NC(N)=O,call,"Species/Cell Type: Nonhuman, Assay Code: CCG-, Evaluation Type: Evaluation A (Pre-1980)",inactive; negative
C=[N+]=[N-],mutagenic call,"Species/Cell Type: Neurospora crassa, Assay Type: Reverse gene mutation, Assay Code: NER+, Evaluation Type: Evaluation A (Pre-1980)",active; positive
same,call,[9],active; positive
same,mutagenic call,"Species/Cell Type: Saccharomyces cerevisiae, Assay Type: Reverse gene mutation, Assay Code: YER+, Evaluation Type: Evaluation A (Pre-1980)",active; positive
Cc1ccc(O)cc1,mutagenic call,"Species/Cell Type: Allium cepa, Assay Type: Chromosome aberrations, Assay Code: ALCT, Evaluation Type: Evaluation A (Pre-1980)",no conclusion
same,mutagenic call,"Species/Cell Type: Human lymphocytes, Assay Type: Sister-chromatid exchange (SCE) in vitro, Assay Code: SCLT, Evaluation Type: Evaluation B (Post-1980)",no conclusion
same,mutagenic call,"Species/Cell Type: Human, Assay Type: Sister-chromatid exchange (SCE) in vitro, Assay Code: SC1-, Evaluation Type: Evaluation B (Post-1980)",inactive; negative
same,mutagenic call,"Species/Cell Type: Nonhuman, Assay Type: Sister-chromatid exchange (SCE) in vivo, Assay Code: SC3T, Evaluation Type: Evaluation B (Post-1980)",no conclusion
Clc1ccc(Oc2cc(Cl)c(Cl)cc2Cl)cc1,mutagenic call,"Species/Cell Type: Saccharomyces cerevisiae, Assay Type: Forward gene mutation, Assay Code: YEF-, Evaluation Type: Evaluation A (Pre-1980)",inactive; negative
same,mutagenic call,"Species/Cell Type: Saccharomyces cerevisiae, Assay Type: Mitotic recombination or gene conversion, Assay Code: YEC-, Evaluation Type: Evaluation A (Pre-1980)",inactive; negative
same,mutagenic call,[7],inactive; negative
C/C=C1/C[C@@H](C)[C@](O)(CO)C(=O)OCC2=CC[N+]3([O-])CC[C@@H](OC1=O)[C@@H]23 (some centres not stated),mutagenic call,[1],no conclusion
COc1cc(C(=O)CCN2CCCCC2)ccc1O,mutagenic call,"Species/Cell Type: Salmonella typhimurium, Assay Type: Forward and reverse gene mutation, host-mediated assay, Assay Code: HMA-, Evaluation Type: Evaluation A (Pre-1980)",inactive; negative
ClC1=C(Cl)[C@]2(Cl)[C@H]3[C@H]([C@@H]4C=C[C@H]3C4)[C@@]1(Cl)C2(Cl)Cl,mutagenic call,[1],no conclusion
same,mutagenic call,[4],no conclusion
same,call,[9],active; positive
same,mutagenic call,[7],inactive; negative
same,mutagenic call,[8],inactive; negative
OC(O)C(Cl)(Cl)Cl,mutagenic call,"Species/Cell Type: Aspergillus nidulans, Assay Type: Aneuploidy, chromosome aberrations, Assay Code: ASN+, Evaluation Type: Evaluation A (Pre-1980)",active; positive
same,mutagenic call,"Species/Cell Type: Aspergillus nidulans, Assay Type: Mitotic recombination, Assay Code: ASG-, Evaluation Type: Evaluation A (Pre-1980)",inactive; negative
same,mutagenic call,"Species/Cell Type: Mammalian polychromatic erythrocytes, Assay Type: Micronucleus test, chromosome aberrations, Assay Code: MNTT, Evaluation Type: Evaluation A (Pre-1980)",no conclusion
same,mutagenic call,"Species/Cell Type: Mouse, Sex: Male, Assay Type: Sperm morphology, Assay Code: SPI-, Evaluation Type: Evaluation A (Pre-1980)",inactive; negative
same,mutagenic call,[2],inactive; negative
same,call,[5],no conclusion
same,mutagenic call,"Species/Cell Type: Salmonella typhimurium (one or more of the five standard strains: TA98, TA100, TA1535, TA1537, and TA1538), Assay Type: Histidine reverse gene mutation, Ames assay, Assay Code: SAL+, Evaluation Type: Evaluation A (Pre-1980)",active; positive
OCCS,mutagenic call,[3],active; positive
c1ccc2c(c1)ccc1cc3c(ccc4ccccc43)cc12,mutagenic call,"Species/Cell Type: Chinese hamster lung (V79) cells, Assay Type: Forward gene mutation at the HPRT or ouabain locus, Assay Code: V79+*, Activation: With metabolic activation, Evaluation Type: Evaluation A (Pre-1980)",active; positive
same,mutagenic call,"Species/Cell Type: Drosophila melanogaster, Assay Type: Sex-linked recessive lethal gene mutation, Assay Code: SRL+, Evaluation Type: Evaluation A (Pre-1980)",active; positive
same,mutagenic call,"Species/Cell Type: Fischer rat embryo (RLV/1706) cells, Assay Type: Cell transformation, viral enhanced, Assay Code: CTR+, Evaluation Type: Evaluation A (Pre-1980)",active; positive
same,mutagenic call,"Species/Cell Type: Fischer rat embryo (SA7/RE) cells, Assay Type: Cell transformation, viral enhanced, Assay Code: CTA+, Evaluation Type: Evaluation A (Pre-1980)",active; positive
same,mutagenic call,"Species/Cell Type: Human diploid fibroblasts, Assay Type: Unscheduled DNA synthesis (UDS) in vitro, DNA effects, Assay Code: UDHT, Evaluation Type: Evaluation A (Pre-1980)",no conclusion
same,mutagenic call,"Species/Cell Type: Mouse (BALB/c-3T3) cells, Assay Type: Cell transformation, Assay Code: CTB+, Evaluation Type: Evaluation A (Pre-1980)",active; positive
same,mutagenic call,"Species/Cell Type: Mouse (C3H/10T1/2) cells, Assay Type: Cell transformation, Assay Code: CTH+, Evaluation Type: Evaluation A (Pre-1980)",active; positive
same,mutagenic call,"Species/Cell Type: Mouse embryo (AKR/ME) cells, Assay Type: Cell transformation, Assay Code: CTK+, Evaluation Type: Evaluation A (Pre-1980)",active; positive
same,mutagenic call,"Species/Cell Type: Mouse prostate cells, Assay Type: Cell transformation, Assay Code: CTMT, Evaluation Type: Evaluation A (Pre-1980)",no conclusion
same,mutagenic call,"Species/Cell Type: Neurospora crassa, Assay Type: Forward gene mutation, Assay Code: NEF+, Evaluation Type: Evaluation A (Pre-1980)",active; positive
same,call,"Species/Cell Type: Nonhuman, Assay Code: CCG+, Evaluation Type: Evaluation A (Pre-1980)",active; positive
same,mutagenic call,"Species/Cell Type: Nonhuman, Assay Type: Sister-chromatid exchange (SCE) in vivo, Assay Code: SC3T, Evaluation Type: Evaluation A (Pre-1980)",no conclusion
same,mutagenic call,"Species/Cell Type: Salmonella typhimurium (one or more of the five standard strains: TA98, TA100, TA1535, TA1537, and TA1538), Assay Type: Histidine reverse gene mutation, Ames assay, Assay Code: SAL+*, Activation: With metabolic activation, Evaluation Type: Evaluation A (Pre-1980)",active; positive
same,mutagenic call,"Species/Cell Type: Syrian hamster embryo (SA7/SHE) cells, Assay Type: Cell transformation, viral enhanced, Assay Code: CT7+, Evaluation Type: Evaluation A (Pre-1980)",active; positive
same,mutagenic call,"Species/Cell Type: Syrian hamster embryo (SHE) cells, Assay Type: Cell transformation, clonal assay, Assay Code: CTC+D, Dose Response: With dose response, Evaluation Type: Evaluation A (Pre-1980)",active; positive
same,mutagenic call,"Species/Cell Type: Syrian hamster embryo (SHE) cells, Assay Type: Cell transformation, focus assay, Assay Code: CTF+, Evaluation Type: Evaluation A (Pre-1980)",active; positive

# Source: PubChem BioAssay AID1259408 (Genetic Toxicology Data Bank (GENE-TOX), 2018)
